Article PMC6934184, “Selective DNA-PKcs inhibition extends the therapeutic index of localized radiotherapy and chemotherapy” (The Journal of Clinical Investigation, 2019)

Target: T1, RET V804L (Homo sapiens, UniProt P07949, V804L)
T1 construct: purchased Thermo Fisher Scientific (Life Technologies) SelectScreen
Assay: SelectScreen Z'LYTE
Format: biochemical
In short: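 SelectScreen broad panel; activity (Z'LYTE, Adapta) plus binding formats. ATP: Km app for CSF1R Z'LYTE; 10 for CAMK1 Adapta. Readout = % per kinase.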

T1 sequence (P07949 29-1114 V804L): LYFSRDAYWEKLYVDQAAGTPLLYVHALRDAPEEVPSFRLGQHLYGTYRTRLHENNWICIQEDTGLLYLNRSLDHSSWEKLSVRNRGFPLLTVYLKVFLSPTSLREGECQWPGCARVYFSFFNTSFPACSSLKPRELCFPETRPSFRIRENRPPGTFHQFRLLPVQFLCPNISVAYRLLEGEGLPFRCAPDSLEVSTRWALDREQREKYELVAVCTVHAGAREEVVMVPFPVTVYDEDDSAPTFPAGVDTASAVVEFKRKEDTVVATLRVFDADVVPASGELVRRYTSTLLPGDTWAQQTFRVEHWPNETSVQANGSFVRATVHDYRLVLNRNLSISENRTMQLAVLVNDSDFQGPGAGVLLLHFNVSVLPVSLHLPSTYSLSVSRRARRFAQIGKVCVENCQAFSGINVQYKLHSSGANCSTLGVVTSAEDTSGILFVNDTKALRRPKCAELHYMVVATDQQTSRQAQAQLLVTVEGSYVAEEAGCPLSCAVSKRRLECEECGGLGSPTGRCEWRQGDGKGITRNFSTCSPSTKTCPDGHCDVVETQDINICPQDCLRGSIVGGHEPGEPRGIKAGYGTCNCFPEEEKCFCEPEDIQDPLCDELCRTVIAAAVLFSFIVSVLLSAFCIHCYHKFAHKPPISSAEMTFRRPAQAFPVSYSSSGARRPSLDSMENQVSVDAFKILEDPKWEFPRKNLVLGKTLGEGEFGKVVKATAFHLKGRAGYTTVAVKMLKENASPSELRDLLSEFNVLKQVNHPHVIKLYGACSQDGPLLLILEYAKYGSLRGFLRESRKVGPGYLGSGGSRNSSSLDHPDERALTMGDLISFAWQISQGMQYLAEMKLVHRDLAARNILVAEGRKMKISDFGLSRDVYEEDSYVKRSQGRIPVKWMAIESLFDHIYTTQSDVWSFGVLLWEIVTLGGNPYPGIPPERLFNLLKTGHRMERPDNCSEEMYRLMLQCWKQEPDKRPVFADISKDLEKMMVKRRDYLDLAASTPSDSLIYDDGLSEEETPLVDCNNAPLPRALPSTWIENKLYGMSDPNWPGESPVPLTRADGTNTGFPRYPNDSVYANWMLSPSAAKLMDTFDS

**Q.** How did the inhibition at 1 µM turn out when `CN(C(=O)CN1CCOCC1)c1ccc2sc3c(-c4cccc5c(=O)cc(N6CC7CCC(C6)O7)oc45)cccc3c2c1` [NU5455] was run?
**A.** Its inhibition at 1 µM is -9.1%.
